US9801387B2, “Compositions comprising a biological control agent and an insecticide” (Bayer CropScience AG, priority 2012, dated 2017)

Columns and labels:
Type in all cases: in vivo
Myzus persicae = Myzus persicae - spray test (MYZUPE); details: mortality
Procedure: (§1) For all examples the efficiencies of the compositions comprising at least one BCA and at least one specific insecticide has been determined by the “Colby-formula”: The expected efficacy of a given combination of two compounds is calculated as follows (see Colby, S. R., “Calculating Synergistic and antagonistic Responses of Herbicide Combinations”, Weeds 15, pp. 20-22, 1967): • If • X is the efficacy expressed in % mortality of the untreated control for test compound A at a concentration of m ppm respectively m g/ha, • Y is the efficacy expressed in % mortality of the untreated control for test compound B at a concentration of n ppm respectively n g/ha, • E is the efficacy expressed in % mortality of the untreated control using the mixture of A and B at m and n ppm respectively m and n g/ha, then is E=X+Y−(X×Y/100)
(§2) If the observed insecticidal efficacy of the combination is higher than the one calculated as “E”, then the combination of the two compounds is more than additive, i.e., there is a synergistic effect.
Myzus persicae—Spray Test (MYZUPE) […]
(§3) After the specified period of time, mortality in % is determined. […] The mortality values determined thus are recalculated using the Colby-formula (see above).

Tetranychus urticae = Tetranychus urticae - spray test, OP-resistant; details: mortality, French beans sprayed
Procedure: as §1, §2
Tetranychus urticase—Spray Test, OP-resistant […]
as §3

Phaedon cochleariae = Phaedon cochleariae - spray test; details: mortality of larvae, 100 g ai/ha
Procedure: as §1, §2
Phaedan Cochleariae—Spray Test […]
as §3

SMILES | Efficacy in % after 1^d (Myzus persicae; Chinese cabbage leaf-disks sprayed, 1 d, 4 g/ha) | Efficacy in % after 6^d (Tetranychus urticae; 6 d, 20 g ai/ha) | Efficacy in % after 6^d (Phaedon cochleariae) | Efficacy in % after 6^d (Myzus persicae; 6 d, 100 g/ha) | Efficacy in % after 2^d (Tetranychus urticae; 2 d, 100 g ai/ha)
O=C1C=C(N(Cc2ccc(Cl)nc2)CC(F)F)CO1 [Flupyradifurone (I262), Flupyradifurone, reference compound] | 0% | 0% | – | – | –
Cc1cc(F)c(-n2nc(C(F)(F)F)nc2N)cc1[S+]([O-])CC(F)(F)F (centres unmarked) [I277, 1-{2-fluoro-4-methyl-5-[(2,2,2-trifluorethyl)sulfinyl]phenyl}-3-(trifluoromethyl)-1H-1,2,4-triazol-5-amine] | – | – | 0% | 0% | 0%
